Laboratory results published in ChEMBL document CHEMBL1126532, “Excitatory amino acid receptor atagonists: synthesis and pharmacology of 3-(carboxymethoxy)isoxazoles derived from AMPA” (Bioorg Med Chem Lett, 1993).

Legend:
Glutamate NMDA receptor = test: Binding affinity by measuring displacement of [3H]CPP from NMDA receptor in rat cortical slice preparation
[1] = target: Glutamate receptor ionotropic, AMPA (Rattus norvegicus, UniProt P19490+P19491+P19492+P19493); test: Binding affinity by measuring displacement of [3H]AMPA from Ionotropic glutamate receptor AMPA in rat cortical slice preparation
[2] = target: Glutamate receptor ionotropic, kainate; test: Binding affinity by measuring displacement of [3H]KAIN from Ionotropic glutamate receptor kainate in rat cortical slice preparation
[3] = target: Glutamate receptor ionotropic, AMPA (Rattus norvegicus) (UniProt P19491+P19492+P19493+P19490); test: Binding affinity by measuring displacement of [3H]AMPA from Ionotropic glutamate receptor AMPA in rat cortical slice preparation at 100 uM

SMILES	IC50 (Glutamate NMDA receptor)	IC50 [1]	IC50 [2]	inhibition [3]
C=C(C)[C@H]1CN[C@H](C(=O)O)[C@H]1CC(=O)O [KAINIC ACID]	> 100 µM	–	–	–
NC(Cc1c(OCC(=O)O)noc1C(F)(F)F)C(=O)O (configuration not stated)	> 100 µM	> 100 µM	> 100 µM	40%
Cc1onc(OCC(=O)O)c1CC(N)C(=O)O (configuration not stated)	> 100 µM	90 µM	> 100 µM	–

Other lines, results leading:

IC50 (Glutamate NMDA receptor)	IC50 [1]	IC50 [2]	inhibition [3]	SMILES
4.5 µM	> 100 µM	> 100 µM	–	Cc1o[nH]c(=O)c1C(N)C(=O)O (configuration not stated)
16 µM	> 100 µM	> 100 µM	–	O=C(O)COc1noc2c1CC(C(=O)O)NC2 (configuration not stated)
> 100 µM	> 100 µM	> 100 µM	–	Cc1onc(OCC(=O)O)c1C(N)C(=O)O (configuration not stated)
